Experimental data reported in patent US8772480B2, “Inhibitors of PI3 kinase and/or mTOR” (priority 2009, dated 2014).

Each compound was assayed on phosphorylation of Akt at Serine 473 in U87 MG cells (assay: cells). Details: Homo sapiens, U-87 MG, 2 h, read-out: U87Cell IC50.

SMILES	IC50 [µM]
Cc1nc(N)nc(-c2cccnc2Nc2cnc(Cl)c(NS(=O)(=O)N3CCOCC3)c2)n1 [Example 366, N-(5-(3-(4-Amino-6-Methyl-1,3,5-Triazin-2-yl)Pyridin-2-Ylamino)-2-Chloropyridin-3-yl)Morpholine-4-Sulfonamide]	0.04
Cc1nc(N)nc(-c2cccnc2Nc2cnc(Cl)c(N)c2)n1 [Example 265, N5-(3-(4-Amino-6-Methyl-1,3,5-Triazin-2-yl)Pyridin-2-yl)-2-Chloropyridine-3,5-Diamine]	0.349
Cc1nc(N)nc(-c2cccnc2Nc2cnc(Cl)c(NS(=O)(=O)N(C)C(C)C)c2)n1 [Example 367, N-(5-(3-(4-Amino-6-Methyl-1,3,5-Triazin-2-yl)Pyridin-2-Ylamino)-2-Chloropyridin-3-yl)-N-Isopropyl-N-Methylaminosulfamide]	0.246
COc1ccc(NCc2cnc(Nc3ccc(OC)nc3)c(-c3nc(C)nc4[nH]cnc34)c2)cc1 [Example 77, 5-((4-methoxyphenylamino)methyl)-N-(6-methoxypyridin-3-yl)-3-(2-methyl-9H-purin-6-yl)pyridin-2-amine]	0.167

Same assay, conditions: Homo sapiens, U-87 MG, 2 h, read-out: U87Cell IC50, pAkt (Ser 473), U87 MG cells, two hours with compound

SMILES	IC50 [µM]
COc1cccc(NCc2cnc(Nc3ccc(OC)nc3)c(-c3nc(C)nc4[nH]cnc34)c2)c1 [Example 78, 5-((3-methoxyphenylamino)methyl)-N-(6-methoxypyridin-3-yl)-3-(2-methyl-9H-purin-6-yl)pyridin-2-amine]	0.479
COc1ccc(Nc2nc(-c3ccncc3)ncc2-c2nc(C)nc(N)n2)cn1 [Example 124, 4-(4-(6-methoxypyridin-3-ylamino)-2-(pyridin-4-yl)pyrimidin-5-yl)-6-methyl-1,3,5-triazin-2-amine]	> 10
Cc1nc(-c2cc(Cc3ccc(S(C)(=O)=O)cc3)cnc2Nc2cccc3[nH]ncc23)c2nc[nH]c2n1 [Example 104, N-(3-(2-methyl-9H-purin-6-yl)-5-(4-(methylsulfonyl)benzyl)pyridin-2-yl)-1H-indazol-4-amine]	0.13
CC(=O)Nc1ccc(Nc2ncccc2-c2nc(C)nc3[nH]cnc23)cc1 [Example 102, N-(4-(3-(2-methyl-9H-purin-6-yl)pyridin-2-ylamino)phenyl)acetamide]	0.088
CCOc1ccc(Nc2ncccc2-c2nc(C)nc(N)n2)cn1 [Example 49, 4-(2-(6-ethoxypyridin-3-ylamino)pyridin-3-yl)-6-methyl-1,3,5-triazin-2-amine]	1.15
COc1ccc(Nc2nc(NC3CCCC3)ncc2-c2nc(C)nc(N)n2)cn1 [Example 126, 5-(4-amino-6-methyl-1,3,5-triazin-2-yl)-N2-cyclopentyl-N4-(6-methoxypyridin-3-yl)pyrimidine-2,4-diamine]	0.24
COc1ccc(Nc2ncc(Cl)cc2-c2nc(C)nc3[nH]cnc23)cn1 [Example 127, 5-chloro-N-(6-methoxypyridin-3-yl)-3-(2-methyl-9H-purin-6-yl)pyridin-2-amine]	0.249
CC(=O)Nc1cc(-c2cnccc2Nc2cccc3[nH]ccc23)nc(C)n1 [Example 108, N-(6-(4-(1H-indol-4-ylamino)pyridin-3-yl)-2-methylpyrimidin-4-yl)acetamide]	1.22
CC(=O)Nc1ccc(Nc2ncc(Cc3ccc(S(C)(=O)=O)cc3)cc2-c2nc(C)nc3[nH]cnc23)cn1 [Example 105, N-(5-(3-(2-methyl-9H-purin-6-yl)-5-(4-(methylsulfonyl)benzyl)pyridin-2-ylamino)pyridin-2-yl)acetamide]	0.159
COc1cccc(Nc2cnc(Nc3ccc(OC)nc3)c(-c3nc(C)nc4[nH]cnc34)c2)c1 [Example 96, N5-(3-methoxyphenyl)-N2-(6-methoxypyridin-3-yl)-3-(2-methyl-9H-purin-6-yl)pyridine-2,5-diamine]	0.412

Results, then the compound that gave them:

IC50 [µM]	SMILES
0.006	COc1ncc(Nc2ncc(C(C)N3CCN(S(C)(=O)=O)CC3)cc2-c2nc(C)nc(N)n2)cc1F (stereo not shown) [Example 143, 4-(2-(5-fluoro-6-methoxypyridin-3-ylamino)-5-(1-(4-(methylsulfonyl)piperazin-1-yl)ethyl)pyridin-3-yl)-6-methyl-1,3,5-triazin-2-amine]
> 10	COC(=O)Nc1ccc(Nc2ncc(Cl)cc2-c2nc(C)nc(N)n2)cn1 [Example 194, Methyl 5-(3-(4-Amino-6-Methyl-1,3,5-Triazin-2-yl)-5-Chloropyridin-2-Ylamino)Pyridin-2-Ylcarbamate]
1.16	Cc1nc(N)nc(-c2cc(C(C)(C)O)cnc2Nc2cncc(S(C)(=O)=O)c2)n1 [Example 355, 2-(5-(4-Amino-6-Methyl-1,3,5-Triazin-2-yl)-6-(5-(Methylsulfonyl)Pyridin-3-Ylamino)Pyridin-3-yl)Propan-2-ol]
2.13	Cc1nc(N)nc(-c2cccnc2Nc2ccc(NC(=O)Nc3cccc(F)c3)nc2)n1 [Example 191, 1-(5-(3-(4-Amino-6-Methyl-1,3,5-Triazin-2-yl)Pyridin-2-Ylamino)Pyridin-2-yl)-3-(3-Fluorophenyl)Urea]
0.037	COc1ncc(Nc2ncc(C(=O)N3CCN(S(C)(=O)=O)CC3)cc2-c2nc(C)nc(N)n2)cc1F [Example 152, 4-(2-((5-Fluoro-6-Methoxy-3-Pyridinyl)Amino)-5-((4-(Methylsulfonyl)-1-Piperazinyl)Carbonyl)-3-Pyridinyl)-6-Methyl-1,3,5-Triazin-2-Amine]
0.891	Cc1nc(N)nc(-c2cccnc2Nc2ccc(NC(=O)Nc3ccccc3)nc2)n1 [Example 190, 1-(5-(3-(4-Amino-6-Methyl-1,3,5-Triazin-2-yl)Pyridin-2-Ylamino)Pyridin-2-yl)-3-Phenylurea]
0.015	COc1ncc(Nc2ncc(C3=CCOCC3)cc2-c2nc(C)nc(N)n2)cc1F [Example 343, 4-(5-(3,6-Dihydro-2H-Pyran-4-yl)-2-(5-Fluoro-6-Methoxypyridin-3-Ylamino)Pyridin-3-yl)-6-Methyl-1,3,5-Triazin-2-Amine]
0.092	Cc1nc(-c2cccnc2Nc2ccc(NC(=O)C3CC3)cc2)c2nc[nH]c2n1 [Example 182, N-(4-(3-(2-Methyl-9H-Purin-6-yl)Pyridin-2-Ylamino)Phenyl)Cyclopropanecarboxamide]
0.019	Cc1nc(N)nc(-c2cc(CN3CCN(S(C)(=O)=O)CC3)cnc2Nc2cc(F)cc3[nH]ncc23)n1 [Example 245, N-(3-(4-Amino-6-Methyl-1,3,5-Triazin-2-yl)-5-((4-(Methylsulfonyl)Piperazin-1-yl)Methyl)Pyridin-2-yl)-6-Fluoro-1H-Indazol-4-Amine]
0.023	Cc1nc(N)cc(-c2cc([C@H](C)N3CCOCC3)cnc2Nc2cnc(Cl)c(NS(=O)(=O)N(C)C)c2)n1 [Example 382, (S—)N-(2-Chloro-5-(3-(6-Amino-2-Methylpyrimidin-4-yl)-5-(1-Morpholinoethyl)Pyridin-2-Ylamino)Pyridin-3-yl)-N,N-Dimethylaminosulfamide]
0.1	CC(=O)Nc1ccc(Nc2ncc(Cl)cc2-c2nc(C)nc(N)n2)cn1 [Example 193, N-(5-(3-(4-Amino-6-Methyl-1,3,5-Triazin-2-yl)-5-Chloropyridin-2-Ylamino)Pyridin-2-yl)Acetamide]
0.04	Cc1nc(N)cc(-c2cc([C@@H](C)N3CCOCC3)cnc2Nc2cnc(Cl)c(NS(=O)(=O)N(C)C)c2)n1 [Example 381, (R)—N-(2-Chloro-5-(3-(6-Amino-2-Methylpyrimidin-4-yl)-5-(1-Morpholinoethyl)Pyridin-2-Ylamino)Pyridin-3-yl)-N,N-Dimethylaminosulfamide]
0.014	COc1ncc(Nc2ncc(C(C)(C)N3CCN(S(C)(=O)=O)CC3)cc2-c2nc(C)nc(N)n2)cc1F [Example 280, 4-(2-(5-Fluoro-6-Methoxypyridin-3-Ylamino)-5-(2-(4-(Methylsulfonyl)Piperazin-1-yl)Propan-2-yl)Pyridin-3-yl)-6-Methyl-1,3,5-Triazin-2-Amine]
0.005	COc1ncc(Nc2ncc([C@@H](C)N3CCN(S(C)(=O)=O)CC3)cc2-c2nc(C)nc(N)n2)cc1F [Example 148, (R)-4-(2-(5-Fluoro-6-Methoxypyridin-3-Ylamino)-5-(1-(4-(Methylsulfonyl)Piperazin-1-yl)Ethyl)Pyridin-3-yl)-6-Methyl-1,3,5-Triazin-2-Amine]
0.012	COc1ncc(Nc2ncc([C@@H](C)N3CCN(S(C)(=O)=O)C[C@H]3C)cc2-c2nc(C)nc(N)n2)cc1F [Example 360, 4-(2-(5-Fluoro-6-Methoxypyridin-3-Ylamino)-5-((R)-1-((R)-2-Methyl-4-(Methylsulfonyl)Piperazin-1-yl)Ethyl)Pyridin-3-yl)-6-Methyl-1,3,5-Triazin-2-Amine]
0.001	Cc1nc(N)nc(-c2cc(C3CCOCC3)cnc2Nc2cnc(Cl)c(NS(C)(=O)=O)c2)n1 [Example 328, N-(5-(3-(4-Amino-6-Methyl-1,3,5-Triazin-2-yl)-5-(Tetrahydro-2H-Pyran-4-yl)Pyridin-2-Ylamino)-2-Chloropyridin-3-yl)Methanesulfonamide]
0.199	COc1ncc(Nc2ncc(F)cc2-c2nc(C)nc(N)n2)cc1F [Example 185, 4-(5-Fluoro-2-(5-Fluoro-6-Methoxypyridin-3-Ylamino)Pyridin-3-yl)-6-Methyl-1,3,5-Triazin-2-Amine]
0.046	Cc1nc(N)cc(-c2cc(C(C)N3CCOCC3)cnc2Nc2cnc(Cl)c(NS(=O)(=O)N(C)C)c2)n1 (stereo not shown) [Example 379, N-(2-Chloro-5-(3-(6-Amino-2-Methylpyrimidin-4-yl)-5-(1-Morpholinoethyl)Pyridin-2-Ylamino)Pyridin-3-yl)-N,N-Dimethylaminosulfamide]
0.026	COc1ncc(Nc2ncc(C(N3CCN(S(C)(=O)=O)CC3)C(F)(F)F)cc2-c2nc(C)nc(N)n2)cc1F (stereo not shown) [Example 325, 4-(2-(5-Fluoro-6-Methoxypyridin-3-Ylamino)-5-(2,2,2-Trifluoro-1-(4-(Methylsulfonyl)Piperazin-1-yl)Ethyl)Pyridin-3-yl)-6-Methyl-1,3,5-Triazin-2-Amine]
1.16	COc1cc(Nc2ncccc2-c2nc(C)nc(N)n2)ccc1F [Example 167, 4-(2-(4-Fluoro-3-Methoxyphenylamino)Pyridin-3-yl)-6-Methyl-1,3,5-Triazin-2-Amine]
